{
  "source": "patent US20190031618A1",
  "about": "“BENZIMIDAZOLE DERIVATIVES USEFUL AS CB-1 INVERSE AGONISTS” (Janssen Pharmaceutica NV, priority 2015, published 2019)",
  "key": {"[1]": {"target": "Human CB1R (Cannabinoid receptor 1) (Homo sapiens, UniProt P21554)", "sequence (P21554 whole entry)": "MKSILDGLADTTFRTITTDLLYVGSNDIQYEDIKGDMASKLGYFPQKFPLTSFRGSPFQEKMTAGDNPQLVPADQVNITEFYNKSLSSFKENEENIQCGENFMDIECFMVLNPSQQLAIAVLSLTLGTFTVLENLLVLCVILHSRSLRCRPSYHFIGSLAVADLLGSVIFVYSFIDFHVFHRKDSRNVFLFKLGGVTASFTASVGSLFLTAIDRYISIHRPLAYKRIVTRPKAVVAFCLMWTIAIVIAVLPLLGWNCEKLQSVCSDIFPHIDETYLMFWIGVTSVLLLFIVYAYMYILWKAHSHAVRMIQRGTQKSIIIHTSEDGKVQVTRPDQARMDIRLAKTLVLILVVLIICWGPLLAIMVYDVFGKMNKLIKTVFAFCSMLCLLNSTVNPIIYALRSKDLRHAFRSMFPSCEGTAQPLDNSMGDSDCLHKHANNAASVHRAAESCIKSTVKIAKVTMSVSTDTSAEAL", "test": "CB-1 in vitro cAMP (HTRF) assay", "assay_type": "cell-based", "settings": "HEK cells, cAMP HTRF, 250 nM forskolin; mean where tested more than once; read-out: CB1 HEK_cAMP EC50", "method_in_brief": "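Intracellular cAMP from HTRF ratio (d2-cAMP vs Eu-cryptate anti-cAMP), converted to nM via per-plate standards, in stable human CB1R HEK-293 cells.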"}, "DIO mice": {"tested_on": "DIO mice", "test": "Five-Day Study in DIO Mice: food intake, body weight, plasma insulin, fed blood glucose", "assay_type": "in vivo", "settings": "for Plasma Insulin: 30 mg/kg, day 5, two hours after dosing, (Std Err)", "source_text": "Male 14-20-week old diet-induced obese mice are ordered from Taconic. Mice were started on a 60% fat diet (D12492, Research Diets, New Brunswick, N.J.) at 6 weeks of age. Mice are single-housed.\nMale Sprague Dawley rats are ordered from Charles River (225-250 gm upon arrival). They are fed standard chow diet (Purina 5001) and housed 2 per cage. Male C57bl/6j mice are ordered from Charles River at 22-25 g and housed 3 per cage. They are fed standard chow (Purina 5001). All animals are housed in a temperature-controlled room with 12-hour light/dark cycle. Animals are given food and water ad libitum, except as noted.\nTest compounds are administered by oral gavage (5 ml kg^−1 or 10 ml kg^−1)."}, "[2]": {"settings": "30 mg/kg daily oral, Day 1, (Std Err)"}, "[3]": {"settings": "30 mg/kg daily oral, Day 2, (Std Err)"}, "[4]": {"settings": "30 mg/kg daily oral, Day 3, (Std Err)"}, "[5]": {"settings": "30 mg/kg daily oral, Day 4, (Std Err)"}, "[6]": {"settings": "30 mg/kg group, Day 0, (Std Err)"}},
  "data": [
    {"compound": "O=C(O)c1cc(F)cc(CN2CCC(n3c(C4CC4)nc4ccc(C(c5ccc(Cl)cc5)c5ccc(Cl)cc5)cc43)CC2)c1", "note": "[Example 89]", "values": [
      {"measurement": "EC50", "setting": "[1]", "value": 7.2, "unit": "nM"}
    ]},
    {"compound": "O=C(O)c1ccc(F)c(CN2CCC(n3c(C4CC4)nc4ccc(C(c5ccc(Cl)cc5)c5ccc(Cl)cc5)cc43)CC2)c1", "note": "[Example 92]", "values": [
      {"measurement": "EC50", "setting": "[1]", "value": 15.9, "unit": "nM"}
    ]},
    {"compound": "O=C(O)c1ccc(CN2CCC(n3c(C4CC4)nc4ccc(C(c5ccc(Cl)cc5)c5ccc(Cl)cc5)cc43)CC2)nc1", "note": "[Example 124]", "values": [
      {"measurement": "EC50", "setting": "[1]", "value": 34.9, "unit": "nM"}
    ]},
    {"compound": "O=C(O)c1cccc(CN2CCC(n3c(C4CC4)nc4ccc(C(c5ccc(Cl)cc5)c5ccc(Cl)cc5)cc43)CC2)n1", "note": "[Example 125]", "values": [
      {"measurement": "EC50", "setting": "[1]", "value": 17.7, "unit": "nM"}
    ]},
    {"compound": "O=C(O)c1ccc(CN2CCC(n3c(C4CC4)nc4ccc(C(c5ccc(Cl)cc5)c5ccc(Cl)cc5)cc43)CC2)o1", "note": "[Example 129]", "values": [
      {"measurement": "EC50", "setting": "[1]", "value": 19.8, "unit": "nM"}
    ]},
    {"compound": "O=C(O)c1cccc(CN2CCC(n3c(C4CC4)nc4ccc(C(c5ccc(Cl)cc5)c5ccc(Cl)cc5)cc43)CC2)c1", "note": "[Example 148]", "values": [
      {"measurement": "EC50", "setting": "[1]", "value": 9.6, "unit": "nM"}
    ]},
    {"compound": "O=C(O)c1csc(S(=O)(=O)N2CCC(n3c(C4CC4)nc4ccc(C(c5ccc(Cl)cc5)c5ccc(Cl)cc5)cc43)CC2)c1", "note": "[Example 221]", "values": [
      {"measurement": "EC50", "setting": "[1]", "value": 8.5, "unit": "nM"}
    ]},
    {"compound": "O=C(O)c1ccc(S(=O)(=O)N2CCC(n3c(C4CC4)nc4ccc(C(c5ccc(Cl)cc5)c5ccc(Cl)cc5)cc43)CC2)o1", "note": "[Example 232]", "values": [
      {"measurement": "EC50", "setting": "[1]", "value": 17.6, "unit": "nM"}
    ]},
    {"compound": "O=C(O)c1cccc(S(=O)(=O)N2CCC(n3c(C4CC4)nc4ccc(C(c5ccc(Cl)cc5)c5ccc(Cl)cc5)cc43)CC2)c1", "note": "[Example 242]", "values": [
      {"measurement": "EC50", "setting": "[1]", "value": 18, "unit": "nM"}
    ]},
    {"compound": "O=S(=O)(c1cccc(O)c1)N1CCC(n2c(C3CC3)nc3ccc(C(c4ccc(Cl)cc4)c4ccc(Cl)cc4)cc32)CC1", "note": "[Example 259]", "values": [
      {"measurement": "EC50", "setting": "[1]", "value": 3.7, "unit": "nM"}
    ]},
    {"compound": "O=C(O)c1ccc(S(=O)(=O)N2CCC(n3c(C4CC4)nc4ccc(C(c5ccc(Cl)cc5)c5ccc(Cl)cc5)cc43)CC2)cc1", "note": "[Example 276]", "values": [
      {"measurement": "EC50", "setting": "[1]", "value": 9.3, "unit": "nM"}
    ]},
    {"compound": "CCc1nc2ccc(C(c3ccc(Cl)cc3)c3ccc(Cl)cc3)cc2n1CC1CCN(S(=O)(=O)C(F)(F)F)CC1", "note": "[Example 315]", "values": [
      {"measurement": "EC50", "setting": "[1]", "value": 5.3, "unit": "nM"}
    ]},
    {"compound": "O=S(=O)(N1CCC(Cn2c(C3CC3)nc3ccc(C(c4ccc(Cl)cc4)c4ccc(Cl)cc4)cc32)CC1)C(F)(F)F", "note": "[Example 316]", "values": [
      {"measurement": "EC50", "setting": "[1]", "value": 2.8, "unit": "nM"}
    ]},
    {"compound": "O=S(=O)(N1CCC(n2c(C3CCC3)nc3ccc(C(c4ccc(Cl)cc4)c4ccc(Cl)cc4)cc32)CC1)C(F)(F)F", "note": "[Example 318]", "values": [
      {"measurement": "EC50", "setting": "[1]", "value": 6.9, "unit": "nM"}
    ]},
    {"compound": "COc1ccc(C(c2ccc(OC)cc2)c2ccc3nc(C4CCC4)n(C4CCN(S(=O)(=O)C(F)(F)F)CC4)c3c2)cc1", "note": "[Example 320]", "values": [
      {"measurement": "EC50", "setting": "[1]", "value": 69.3, "unit": "nM"}
    ]},
    {"compound": "CCc1nc2ccc(C(c3ccc(Cl)cc3)c3ccc(Cl)cc3)cc2n1C1CCN(S(=O)(=O)C(F)(F)F)CC1", "note": "[Example 328]", "values": [
      {"measurement": "EC50", "setting": "[1]", "value": 8.4, "unit": "nM"},
      {"measurement": "Mean Body Weight", "setting": "DIO mice; [2]", "value": "41.2 (0.7) Grams"},
      {"measurement": "Mean Daily Food Intake", "setting": "DIO mice; [2]", "value": "0.5 (0.1) Grams"},
      {"measurement": "Mean Body Weight", "setting": "DIO mice; [3]", "value": "39.6 (0.6) Grams"},
      {"measurement": "Mean Daily Food Intake", "setting": "DIO mice; [3]", "value": "0.5 (0.1) Grams"},
      {"measurement": "Mean Body Weight", "setting": "DIO mice; [4]", "value": "38.6 (0.6) Grams"},
      {"measurement": "Mean Daily Food Intake", "setting": "DIO mice; [4]", "value": "0.7 (0.1) Grams"},
      {"measurement": "Fed Blood Glucose", "setting": "DIO mice; [5]", "value": "154 (7) mg/dL"},
      {"measurement": "Mean Body Weight", "setting": "DIO mice; [5]", "value": "38.2 (0.7) Grams"},
      {"measurement": "Mean Daily Food Intake", "setting": "DIO mice; [5]", "value": "1.2 (0.1) Grams"},
      {"measurement": "Fed Blood Glucose", "setting": "DIO mice; [6]", "value": "183 (9) mg/dL"},
      {"measurement": "Mean Body Weight", "setting": "DIO mice; [6]", "value": "43.6 (0.7) Grams"},
      {"measurement": "Plasma Insulin", "setting": "DIO mice", "value": "1.31 (0.13) ng/mL"}
    ]},
    {"compound": "O=S(=O)(N1CCC(n2c(C3CC3)nc3ccc(C(c4ccc(Cl)cc4)c4ccc(Cl)cc4)cc32)CC1)C(F)(F)F", "note": "[Example 335]", "values": [
      {"measurement": "EC50", "setting": "[1]", "value": 5.6, "unit": "nM"},
      {"measurement": "Mean Body Weight", "setting": "DIO mice; [2]", "value": "42.8 (0.8) Grams"},
      {"measurement": "Mean Daily Food Intake", "setting": "DIO mice; [2]", "value": "0.4 (0.1) Grams"},
      {"measurement": "Mean Body Weight", "setting": "DIO mice; [3]", "value": "41.4 (0.7) Grams"},
      {"measurement": "Mean Daily Food Intake", "setting": "DIO mice; [3]", "value": "0.5 (0.1) Grams"},
      {"measurement": "Mean Body Weight", "setting": "DIO mice; [4]", "value": "40.3 (0.6) Grams"},
      {"measurement": "Mean Daily Food Intake", "setting": "DIO mice; [4]", "value": "0.5 (0.1) Grams"},
      {"measurement": "Fed Blood Glucose", "setting": "DIO mice; [5]", "value": "160 (6) mg/dL"},
      {"measurement": "Mean Body Weight", "setting": "DIO mice; [5]", "value": "39.4 (0.6) Grams"},
      {"measurement": "Mean Daily Food Intake", "setting": "DIO mice; [5]", "value": "1.1 (0.1) Grams"},
      {"measurement": "Fed Blood Glucose", "setting": "DIO mice; [6]", "value": "187 (9) mg/dL"},
      {"measurement": "Mean Body Weight", "setting": "DIO mice; [6]", "value": "45.4 (0.7) Grams"},
      {"measurement": "Plasma Insulin", "setting": "DIO mice", "value": "2.72 (0.61) ng/mL"}
    ]},
    {"compound": "CCc1nc2ccc(C(c3ccc(Cl)cc3)c3nccs3)cc2n1C1CCN(S(=O)(=O)C(F)(F)F)CC1", "note": "(stereo not drawn) [Example 400]", "values": [
      {"measurement": "EC50", "setting": "[1]", "value": 6, "unit": "nM"}
    ]}
  ]
}
